Measured values published in PMC6571673, “Cytostatic and Cytotoxic Natural Products against Cancer Cell Models” (Molecules, 2019).

Columns and labels:
[1] = system: SUP-B15; test: Annexin V/PI apoptosis flow cytometry assay; assay type: cell-based, human; settings: SUP-B15, 24 h; for late apoptotic state or cell death: 10 µM; for live cells (Annexin-, PI-): 8 5 µM, 9 10 µM, 10 5 µM, 12 10 µM, 13 10 µM
Procedure: (§1) The samples were probed with AnnexinV-FITC (Roche/Boehringer Mannheim, Indianapolis, IN, USA) according to the manufacturer’s instructions. KOPN-8 or SUB-P15 cells were plated (1.00 × 10^6 cells/plate) and incubated for 12 h and incubated at 37 °C. Then, cells were treated with compounds or controls for 24 h. Cells were stained with AnnexinV-FITC, PI and the staining profiles were determined with FACScan and Cell-Quest software. For cellular DNA content, the same cell treatment as above was performed. Then, cells were fixed in cold 75% ethanol, treated with RNase and then stained with PI solution (50 µg/mL). Cell cycle distribution was analyzed with the FACSCalibur analyzer (BD Biosciences, Franklin Lakes, NJ, USA) and Cell-Quest software. The percentage of DNA content at different phases of the cell cycle was analyzed with ModFit-software (version 5.0, Verity Software House, Topsham, ME, USA).

[2] = system: KOPN-8; test: Annexin V/PI apoptosis flow cytometry assay; assay type: cell-based, human; settings: KOPN-8, 24 h; for late apoptotic state or cell death: 10 µM; for live cells (Annexin-, PI-): 8 5 µM, 9 10 µM, 10 5 µM, 12 10 µM, 13 10 µM
Procedure: as §1

[3] = system: SUP-B15; test: Cell cycle analysis (PI DNA content, flow cytometry); assay type: cell-based, human; settings: SUP-B15, 24 h
Procedure: as §1

[4] = system: KOPN-8; test: as above; assay type: cell-based, human; settings: KOPN-8, 24 h; silvestrol 5 µM, 8 5 µM, 9 10 µM, 10 5 µM, 12 10 µM, 13 10 µM
Procedure: as §1

[5] = system: PBMC; test: CTG viability assay (CellTiter-Glo, 72 h); assay type: cell-based; settings: Homo sapiens, non-cancerous cells
Procedure: (§2) All human cell lines were incubated at 37 °C in a 5% CO2 atmosphere and maintained under sterile conditions. Cells were tested for Mycoplasma (Lonza, Alpharetta, GA, USA) using the manufacturer’s conditions prior to experiments. Cell lines were purchased from American Type Culture Collection (ATCC, Manassas, VA, USA) or Leibniz-Institute Deutsche Sammlung von Mikroorganismen und Zellkulturen GmbH (DSMZ, Braunschweig, Germany) and cultured without antibiotics unless stated. Leukemia cells were cultured in RPMI and supplemented with 10% fetal bovine serum (FBS, Hyclone, Logan, UT, USA). SUP-B15, and KOPN-8 lines were cultured in RPMI supplemented with 10% FBS (Hyclone), 1% GlutaMAX™, 1% Pen/Step, and 0.1% β-mercaptoethanol. BJ cells were cultured in EMEM media supplemented with 10% FBS (Hyclone). Breast cancer cells (MDA-MB-231 & SUM149) were cultured in DMEM and Ham’s F12 respectively, supplemented with 10% FBS, 1% GlutaMAX™, 1% Pen/Step, and 2 µM cortisol/1 µg/mL insulin for SUM149. Both cells were grown to 80% confluence densities as recommended by ATCC. PBMCs were supplemented with concanavalin-A (5 μg/mL) and IL-2 (50 U/ml). To test general cytotoxicity, the following cell numbers were used for 384 well plates: KOPN-8 (ACC 552, infant human B cell precursor acute lymphoblastic leukemia with MLL-MLLt1/ENL fusion, 1000 cells/well), SUP-B15 (ACC389, human B cell precursor acute lymphoblastic leukemia of pediatric second relapse carrying the ALL-variant (m-bcr) of BCR-ABL1 fusion gene (e1-a2), 1600 cells/well), NALM-06 (DSMZ ACC128, non-T/non-B ALL at relapse with P15INK4B and P16INK4A deletions, 1200 cells/well), UoC-B1 (pediatric BCP-ALL at second relapse with TCF3/E2A-HFL fusion, 1000 cells/well), BJ (CRL-2522, normal human foreskin fibroblast cells, 400 cells/well) and PBMCs (periphery blood monocyte cells from healthy donors, IBC#BDC046, 10,000 cells/well).
(§3) Cytotoxicity evaluation was performed using the CellTiter-Glo Luminescent Cell Viability Assay kit (G7570, Promega, Madison, WI, USA), according to the manufacturer’s instructions. Briefly, the cell concentrations used were experimentally determined to ensure logarithmic growth during the 72-h duration of the experiment, and avoid adverse effects on cell growth by DMSO exposure. 1 × 10^3–4.8 × 10^3 or 4 × 10^2–1.2 × 10^3 cells/well were seeded in 96 or 384-well white flat-bottomed plates (3610 or 8804BC, Corning, Corning, NY, USA) in 100 µL or 30 µL/well, respectively. The plates were incubated at 37 °C in 5% CO2 for 24 h before drugging. Test compounds (10 mM in DMSO) in nine 3-fold serial dilutions were dispensed via pintool (Biomek liquid handler, Beckman, Indianapolis, USA) to assay plates. The final concentration of DMSO was 0.3% (v/v) in each well. The positive controls included staurosporine (10 μM), and gambogic acid (10 μM). The plates were incubated for 72 h at 37 °C in 5% CO2, then quenched with CellTiter-Glo® (Promega, Madison, WI, USA, 50 µL/96 or 30 µL/384), centrifuged at 1000 rpm for 1 min and incubated at RT for 20 min. Luminescence was recorded with a plate reader (Envision, Perkin Elmer, Waltham, MA, USA). The mean luminescence of each experimental treatment group was normalized as a percentage of the mean intensity of untreated controls. EC50 values were calculated by Pipeline Pilot software (Accelrys, Enterprise Platform, San Diego, CA, USA).

[6] = system: NALM-06; test: CTG viability assay (CellTiter-Glo, 72 h); assay type: cell-based; settings: Homo sapiens, mean ± SEM of triplicates
Procedure: as §2, §3

[7] = system: KOPN-8; test: CTG viability assay (CellTiter-Glo, 72 h); assay type: cell-based; settings: Homo sapiens, mean ± SEM of triplicates
Procedure: as §2, §3

[8] = system: UoC-B1; test: CTG viability assay (CellTiter-Glo, 72 h); assay type: cell-based; settings: Homo sapiens, mean ± SEM of triplicates
Procedure: as §2, §3

[9] = system: SUP-B15; test: CTG viability assay (CellTiter-Glo, 72 h); assay type: cell-based, human; settings: Homo sapiens
Procedure: as §2, §3

[10] = system: BJ; test: CTG viability assay (CellTiter-Glo, 72 h); assay type: cell-based, human; settings: Homo sapiens, BJ; CellTiter-Glo, 72 h; non-cancerous cells
Procedure: as §2, §3

[11] = system: de novo protein synthesis in MDA-MB-231; test: EZClick in-cell-click de novo protein synthesis assay; assay type: cell-based, human; settings: MDA-MB-231, 2 h exposure time
Excerpt: Protein synthesis is essential in cell growth, proliferation, signaling, differentiation, and death. […] The assay includes a robust chemical method based on an alkyne containing o-propargyl-puromycin probe, which stops translation by forming covalent conjugates with nascent polypeptide chains. Truncated polypeptides are rapidly turned over by the proteasome and can be detected based on the subsequent click reaction with a fluorescent azide. To test whether these compounds (4–14) induced de novo protein synthesis inhibition, compounds were tested for a 2 h exposure time, under the same conditions as the known protein synthesis inhibitor cycloheximide (CHX) in MDA-MB-231 cell model following an in-cell-click de novo protein synthesis assay.
Biovision’s EZClick™ protein synthesis monitoring assay kit (EZClick™ Global Protein Synthesis Assay Kit, Catalog # K715-100, Milpitas, CA, USA) was used according to manufacturer’s protocol. The assay was conducted in 8-well chambered coverslips (ibidi GmbH µ-slide # 80826, Martinsried, Germany). Cells were plated at 2 × 10^4 per well and incubated at 37 °C for 12 h. Then, the cells were treated with compounds for 1.5 h and processed and stained according to protocol (representative images shown in Figure 4). Protein synthesis activity is shown in red, DNA staining is shown in green. Cycloheximide (CHX) was used as a positive control and DMSO as the negative control. Images shown were taken with a Marianas CSU-X spinning disk confocal imaging system (3i, Denver, CO, USA) configured with a Zeiss Axio Observer microscope (Carl Zeiss Inc., Thornwood, NY, USA) with diode lasers, at 63× magnification and resolution of 512 × 512 pixels (3i). For each field of view, an image stack consisting of 20 optical sections were taken at 63× magnification. The total intensity of red and green staining was quantified for the entire image stack. Six fields of view were analyzed per condition. Images shown represent a single optical section for each field of view. For each stack, the red intensity (protein synthesis) was adjusted to the green intensity (DNA content) in each image. The numbers from six images were used to calculate the average and standard deviation for each condition. Numbers were normalized to the negative control value arbitrarily set to one. The Slide viewer 6 software package was used for rendering and analysis of the images.

[12] = SUP-B15, mean ± SEM of triplicates
[13] = SUP-B15, 72 h, mean ± SEM of triplicates

| Structure (SMILES) | late apoptotic state or cell death [1] | live cells (Annexin-, PI-) [1] | late apoptotic state or cell death [2] | live cells (Annexin-, PI-) [2] | reduction in the percentage of cells in the S phase ([3]; 10 µM) | cell cycle effect ([3]; silvestrol 5 µM, 8 5 µM, 9 10 µM, 10 5 µM, 12 10 µM, 13 10 µM) | cell cycle effect [4] | EC50 [5] [µM] | EC50 [6] [µM] | EC50 [7] [µM] | EC50 [8] [µM] | EC50 [9, 12] [µM] | EC50 [10] [µM] | de novo protein synthesis inhibition [11] | EC50 [9, 13] [µM] | increase in the percentage of cells in S phase ([3]; 5 µM) | reduction in the percentage of cells in G2/M phase ([3]; 5 µM) |
| --- | --- | --- | --- | --- | --- | --- | --- | --- | --- | --- | --- | --- | --- | --- | --- | --- | --- |
| C[C@H]([C@H](O)CCC(C)(C)O)[C@H]1CC[C@@]2(O)C3=CC(=O)[C@@H]4C[C@@H](O)[C@@H](O)C[C@]4(C)[C@H]3CC[C@]12C [Compound 12, ecdysone] | did not capture significant increase of late apoptotic state or cell death | small decrease in live cells | did not capture significant increase of late apoptotic state or cell death | small decrease in live cells | ~ 10% | arrested G2/M | minimal effect on the cell cycle | > 43.3 | > 43.3 | > 43.3 | > 21.6 | 20.1 ± 3.2 | > 43.3 | little to no protein synthesis inhibition | – | – | – |
| CC(C)(O)CC[C@@H](O)[C@](C)(O)[C@H]1CC[C@@]2(O)C3=CC(=O)[C@@H]4C[C@@H](O)[C@@H](O)C[C@]4(C)[C@H]3CC[C@]12C [Compound 11] | – | – | – | – | – | – | – | > 43.3 | > 43.3 | > 43.3 | > 21.6 | – | > 43.3 | no protein synthesis inhibition | 29 ± 6 | – | – |
| COc1ccc(CC2c3cc(O)c(OC)cc3CCN2C)cc1O (centres unmarked) [Compound 4] | – | – | – | – | – | – | – | > 86.8 | 18.3 ± 2.5 | 32.1 ± 3.5 | > 23.4 | 38 ± 6.1 | > 46.8 | Partial protein synthesis inhibition | – | – | – |
| COc1cc2c(cc1O)[C@H]1Cc3ccc(OC)c(O)c3CN1CC2 [Compound 5] | – | – | – | – | – | – | – | > 43.3 | 8.38 ± 1.8 | 32 ± 7.6 | 17.3 ± 3.8 | 29 ± 3.7 | > 43.3 | – | – | – | – |
| CC(C)CC[C@@H](O)[C@](C)(O)[C@H]1CC[C@@]2(O)C3=CC(=O)[C@]4(O)C[C@@H](O)[C@@H](O)C[C@]4(C)[C@H]3[C@H](O)C[C@]12C [Compound 13, muristerone A] | did not capture significant increase of late apoptotic state or cell death | – | did not capture significant increase of late apoptotic state or cell death | – | – | – | minimal effect on the cell cycle | > 43.3 | 0.518 ± 0.15 | > 43.3 | > 21.6 | – | > 43.3 | little to no protein synthesis inhibition | 9.5 ± 2.1 | – | – |
| COc1ccc2c(c[n+](C)c3c4cc5c(cc4ccc23)OCO5)c1OC [Compound 8, chelerythrine] | – | not viable | – | not viable | – | – | significant cell arrest in G1/G0 | 7.89 | 1.9 ± 0.2 | 0.821 ± 0.22 | 1.96 ± 0.28 | – | 29.8 | no inhibition | 2.77 ± 0.36 | ~ 20% | ~ 10% |
| CCC1CN2CCc3cc(OC)c(OC)cc3C2CC1CC1NCCc2cc(O)c(OC)cc21 (centres unmarked) [Compound 6] | – | – | – | – | – | – | – | > 43.3 | 18.4 ± 3.1 | 0.16 ± 0.05 | > 21.6 | 9.83 ± 0.5 | > 43.3 | – | – | – | – |
